Laboratory results as given in US7507792B2, “MDA-7 proteins and methods of use thereof” (The Trustees of Columbia University In The City of New York, priority 1993, dated 2009).
“Also recorded” adds a separate entry of the source. Starred links: 1 amine or outer side, 2 acyl side, 3 side chain; linkers in the order of their positions; H or OH if unused. Positions of bridges follow the written chain, without caps; N, C: chain ends. Non-standard residues stand in square brackets, D forms with d. Residues, ends and D or L forms follow the SMILES beside them. Chains are numbered I, II in the order given. Actinocin(9to1) = Cc1c2oc3c(C)ccc(C(=O)[*:1])c3nc-2c(C(=O)[*:2])c(N)c1=O; NMeV = CN[C@H](C(=O)O)C(C)C; Sar = CNCC(=O)O

What was measured:
[1] = test system: H0-1 human melanoma cell line; experiment: 96-h growth suppression (cell number by Coulter Counter); format: cell-based; conditions: H0-1 cells, degree of initial 96 hr growth suppression versus untreated control
Procedure: FIG. 1A-B Effect of continuous exposure to various growth and differentiation modulating agents on the 96-h growth of the human melanoma cell line, H0-1. Cells were seeded at 5×10^4/35-mm tissue culture plate and 24 h later the medium was changed with the indicated compounds. Cell numbers were determined by Coulter Counter after 96-h growth. Further details can be found in Materials and Methods.
The H0-1 cell line is a melanotic melanoma derived from a person and was used between passage 100 and 125 (6,8,13). H0-1 cells were kindly provided by Dr. Beppino C. Giovanella, Stehlin Foundation for Cancer Research, Houston, Tex. Cultures were grown at 37° C. in a 95% air 5% CO2-humidified incubator in Dulbecco's modified Eagle's medium (DMEM) supplemented with 10% fetal bovine serum (DMEM-10) (Hyclone, Logan, Utah). H0-1 cells were maintained in the logarithmic stage of growth by subculturing (1:5 or 1:10) prior to confluency approximately every 4 to 5 days. […] Total cell numbers were determined after days 4, 7, 14, and 21, using a ZM Coulter Counter, and viable cell numbers were determined by trypan blue dye exclusion (6). […] Increases in cell number (two or more population doublings) after removal of the inducing agent(s) was considered reversible growth suppression. […] Conditioned medium was collected from treated cultures, contaminating cells were removed by centrifugation at 1000 rpm/10 min., and conditioned medium was stored at 4° C. until assayed for gene modulatory activity. Control conditioned medium was obtained as experimental conditioned medium from cells receiving only a medium change 24 hours after plating in the absence of test compound(s) and growth for 72 hours in DMEM-10.

mda-6 = mda-6 expression (Northern blotting); format: cell-based, human; conditions: H0-1
Procedure: (§1) The mass excision of the library was performed using ExAssist helper phage as described above. The SOLR strain of Escherichia coli and cDNA phagemids were mixed at 37° C. for 15 min and plated onto LB plates containing ampicillin and IPTG/X-gal. White colonies were chosen at random, isolated and grown in LB medium. Plasmid minireps and restriction enzyme digestions were performed to confirm the presence of inserts. The inserts were isolated and used as robes for Northern blotting analysis (5,25). […] Radiolabeled probes were generated by random oligonucleotide priming (25). Prehybridization, hybridization, posthybridization washes, and autoradiography were performed as described (5,18,25).
Total cytoplasmic RNA was isolated and Northern blotting hybridization was performed as described (Reddy et al., 1991; Su et al., 1991; Jiang et al., 1992). Ten μg of RNA was denatured with glyoxal/DMSO, electrophoresed on 1.0% agarose gels, transferred to nylon membranes and hybridized to a ^32P-labeled p53 probe (Baker et al., 1990). The nylon membrane was stripped and hybridized to a ^32P-labeled mda-6 probe (Jiang and Fisher, 1993) and then after a second stripping the membrane was hybridized to a ^32P-labeled rat GAPDH probe (Fort et al., 1985), as described previously (Reddy et al., 1991; Su et al., 1991; Jiang et al., 1992). Following hybridization, the filters were washed and exposed for autoradiography (Reddy et al., 1991; Su et al., 1991; Jiang et al., 1992). mda-6 and GAPDH gene expression were also determined by reverse transcription-polymerase chain reaction (RT-PCR) as described (Adollahi et al., 1991; Lin et al., 1994; Jiang et al., 1994b). Total cytoplasmic RNA was treated with 0.5 units DNase (Boehringer-Mannheim Biochemicals)/μg RNA in 15% glycerol, 10 mM Tris, pH 7.5, 2.5 mM MgCl2, 0.1 mM EDTA, 80 mM KCl, 1 mM CaCl2 and 1 unit/ml RNasin (Promega) at 30° C. for 10 min. RNA was extracted with phenol-chloroform, precipitated with sodium acetate/ethanol and RNA pellets were resuspended in diethylpyrocarbonate-treated H2O. One μg of total RNA was reverse transcribed with 200 units of murine leukemia virus reverse transcriptase (Bethesda Research Laboratories) in 20 μl containing 1 mM deoxyribonucleotide triphosphates, 4 mM MgCl2, 10 mM Tris, pH 8.3, 50 mM KCl, 0.001% gelatin and 0.2 μg oligo-dT primer. Samples were adjusted to 100 μl with buffer containing 0.2 mM deoxyribonucleotide triphosphates, 2 mM MgCl2, 10 mM Tris, pH 8.3, 50 mM KCl and 0.001% gelatin. Fifty pmol of each primer, 1.5 units Taq DNA polymerase (Perkin-Elmer Cetus) were added and samples were covered with mineral oil, heated at 95° C. for 5 min and subjected to 25 cycles of PCR in a Perkin-Elmer Thermal Cycler using 1 min denaturation at 94° C., 2 min annealing at 55° C. and 3 min polymerization at 72° C. After extraction with chloroform, 20 μl of products were electrophoresed, blotted onto nylon filters and hybridized with an mda-6 or GAPDH specific probe. The mda-6 primers were 5′ to 3′ […] (SEQ ID NO:26) and […] (SEQ ID NO:27)(corresponding to nt 1527 to 1546) (GenBank accession number U09579); and the GAPDH primers were 5′ to 3′ […] (SEQ ID NO:28)and […] (SEQ ID NO:29)(corresponding to nt 1070 to 1053) (Tokunaga et al., 1987).

mda-7 = mda-7 expression (Northern blotting, RT-PCR); format: cell-based, human; conditions: for mda-7 expression: H0-1
Procedure: as §1

mda-9 = mda-9 expression (Northern blotting); format: cell-based, human; conditions: H0-1
Procedure: as §1

mda-4 = mda-4 expression (Northern blotting); format: cell-based, human; conditions: H0-1
Procedure: as §1

H0-1 cells = experiment: Northern blotting analysis of steady-state mRNA levels; format: cell-based, human; conditions: FIG. 1 concentrations
Procedure: Steady-state levels of specific mRNAs were determined by Northern blotting analysis of total RNA probed with appropriate ^32P-labeled gene probes as described previously (14-16). RNAs were analyzed from cells treated with inducer for 24 hours, treated for 24 hours with inducer followed by growth for 72 hours in the absence of inducer, or treated continuously for 96 hours with the inducer. The concentration of inducing compounds used were the same as those used for growth studies. The effect of conditioned medium on gene expression changes was determined by treating H0-1 cells for 24 hours with a 1:2 dilution of conditioned medium (equal volumes of conditioned medium and DMEM supplemented with 10% fetal bovine serum (DMEM-10) or for 96 hours with a 1:4 dilution of conditioned medium (1 vol. of conditioned medium to 3 vol. of DMEM-10). The probes used in the present study were specific for β-actin (17), γ-actin (17), c-jun (18), c-myc (19), fibronectin (20), gro/MGSA (21), HLA Class I antigen (22), HLA Class II antigen (HLA-DRβ) (22), α5 integrin (23), β1 integrin (24), ISG-15 (25), ISG-54 (25), jun-B (26), and tenascin (27). Northern blots were also probed with a ^32P-labeled GAPDH gene (15) to verify similar mRNA expression under the various experimental conditions. Following hybridization, the filters were washed and exposed for autoradiography.

mda-5 = mda-5 expression (Northern blotting); format: cell-based, human; conditions: H0-1
Procedure: as §1

mda-8 = mda-8 expression (Northern blotting); format: cell-based, human; conditions: H0-1
Procedure: as §1

[2] = 96 hours, doses of FIG. 15 legend
[3] = 24 hours, doses of FIG. 19, phenyl butyrate 24 hours, 4 or 7 days
[4] = 24 hours, doses of FIG. 19, phenyl butyrate 24 hours, 4 days or 7 days

Row | Compound | mda-6 expression (mda-6; [3]) | mda-7 expression (mda-7; [4]) | mda-9 expression (mda-9; [4]) | mda-4 expression (mda-4; [4]) | mda-5 expression (mda-5; [4]) | mda-8 expression (mda-8; [4]) | also measured
1 | COc1c(C)c2c(c(O)c1C/C=C(\C)CCC(=O)O)C(=O)OC2 [MPA, mycophenolic acid] | – | – | – | – | – | – | Growth Suppression (reversible) ([1]; Table 1): 3+ (3+ = ~50 to 60% reduction in growth in comparison with untreated control cultures); Growth Suppression (reversible) ([1]; Table 2): − (− = no significant change in growth (<10% reduction in growth in comparison with untreated control cultures)); mda-6 expression (mda-6; [2]): no significant or reduced alteration in expression; mda-7 expression (mda-7; [2]): Increased expression; also recorded: induced; mda-9 expression (mda-9; [2]): No change in mda-9 expression; mda-4 expression (mda-4; [2]): No or only a small change in expression; HLA Class I antigen gene expression (H0-1 cells; 96 h): did not significantly alter; fibronectin expression (H0-1 cells; 96 h): most effective single agents; induction of gro/MGSA gene expression (H0-1 cells; 96 h): did not; tenascin expression (H0-1 cells; 96 h): enhanced tenascin expression; c-jun and jun-B expression (H0-1 cells; 96 hours): increase; c-myc expression (H0-1 cells; 96 hours): downregulated; mda-5 expression (mda-5; [2]): No change in expression; mda-8 expression (mda-8; [2]): No change in expression
2 | COc1cc([C@@H]2c3cc4c(cc3[C@@H](O[C@@H]3O[C@@H]5CO[C@@H](C)O[C@H]5[C@H](O)[C@H]3O)[C@H]3COC(=O)[C@H]23)OCO4)cc(OC)c1O [VP-16] | increased expression | No induction in mda-7 expression | Increased expression | No or only a small change in expression | No change in expression | No change in expression | –
3 | Cc1c2oc3c(C)ccc(C(=O)N[C@@H]4C(=O)N[C@H](C(C)C)C(=O)N5CCC[C@H]5C(=O)N(C)CC(=O)N(C)[C@@H](C(C)C)C(=O)O[C@@H]4C)c3nc-2c(C(=O)N[C@@H]2C(=O)N[C@H](C(C)C)C(=O)N3CCC[C@H]3C(=O)N(C)CC(=O)N(C)[C@@H](C(C)C)C(=O)O[C@@H]2C)c(N)c1=O [actinomycin D] (I: T[dV]P[Sar][NMeV] / II: T[dV]P[Sar][NMeV]; ester I:1-I:C, II:1-II:C; linker I:N-II:N via Actinocin(9to1)) | increased expression | No induction in mda-7 expression | No change in mda-9 expression | No or only a small change in expression | No change in expression | Increased expression | –
4 | COc1cccc2c1C(=O)c1c(O)c3c(c(O)c1C2=O)C[C@@](O)(C(=O)CO)C[C@@H]3O[C@H]1C[C@H](N)[C@H](O)[C@H](C)O1 [adriamycin, Adriamycin] | increased expression | increased mda-7 expression | – | No or only a small change in expression | No change in expression | Increased expression | –
5 | N.N.[Cl][Pt][Cl] [cis-platinum] | Decreased expression | No induction in mda-7 expression | No change in mda-9 expression | increased expression | No change in expression | Increased expression | –
6 | COS(C)(=O)=O [methyl methanesulfonate] | – | – | – | – | – | – | mda-6 expression (mda-6; 2 h exposure to 25 μg/ml): Elevated mda-6 expression
7 | CCCC(=O)Oc1ccccc1 [phenyl butyrate] | Decreased expression | No induction in mda-7 expression | Increased expression | No or only a small change in expression | No change in expression | No change in expression | –
8 | CC[C@]1(O)C[C@H]2CN(CCc3c([nH]c4ccccc34)[C@@](C(=O)OC)(c3cc4c(cc3OC)N(C=O)[C@H]3[C@@](O)(C(=O)OC)[C@H](OC(C)=O)[C@]5(CC)C=CCN6CC[C@]43[C@@H]65)C2)C1 [vincristine, Vincristine] | No change in mda-6 expression | increased mda-7 expression | No change in mda-9 expression | No or only a small change in expression | No change in expression | No change in expression | –
9 | IFN-α | Decreased expression | No induction in mda-7 expression | Increased expression | increased expression | increased expression | No change in expression | –
10 | TNF-α | Decreased expression | No induction in mda-7 expression | Increased expression | No or only a small change in expression | No change in expression | No change in expression | –
11 | phenylacetate | – | – | – | – | – | – | mda-7 expression (RT-PCR) (mda-7; LAN human neuroblastoma cells, 5 days): induced
